Test results published in US20080032953A1, “Method For Inhibiting Prebiotic Effect Of Food Proteins” (Royal Canin SA,, priority 2004, published 2008).

Columns and labels:
[1] = tested on: aerobic microflora; assay: Growth of cat oral bacterial microflora in artificial saliva with protein, with or without phosphate: aerobic count; format: cell-based
Description: (§1) For all the experiments, the bacterial microflora of the oral cavity was removed, kept in a conservation medium, and then cultured in artificial saliva according to the following protocol:
(§2) Two male cats of “European” race, weighing approximately 5.50 kg, were anesthetized with 0.3 ml of a solution of medetomidine at 0.085 g/100 ml (Domitor, ND) and 0.26 ml of a solution of ketamine at […] (Imalgene 1000, ND).
(§3) In each animal thus immobilized, the saliva was sterilely suctioned with a pipette and the base of the teeth, the gums and the gum pockets were scraped with the back of a sterile scalpel.
(§4) All the samples were transferred and well-diluted in 100 ml of a sterile conservation medium (thiocolate resazurin medium from Biokar supplemented with 25% of glycerol). The conservation medium containing the samples was transferred into tubes with microbeads (Cryobilles, ND from AES). These tubes were then incubated for 6 hours in an incubator at 37° C., in a jar under CO2, before being frozen for subsequent use.
(§5) When subsequently used, each tube is thawed at ambient temperature and then incubated for 12 hours at 37° C., in a jar under CO2. The aerobic and anaerobic bacteria are counted according to the methods described hereinafter. The content of each tube is subsequently diluted with the sterile conservation medium so as to have an inoculum of 5000 (3.70 log10) revivable microorganisms in 0.2 ml.
(§6) The aerobic microflora is cultured and then counted on a trypticase soy medium (Biokar) incubated at 37° C. for 48 hours.
(§7) The basic artificial saliva is prepared according to table 31 on page 244 of the manual Biological Handbooks—Metabolism, compiled and edited by Philip L. Altman and Dorothy S. Dittmer, published by Federation of American Societies for Experimental Biology, 1968.
(§8) This basic saliva is supplemented with L-cysteine at a rate of 0.5 g/liter in order to lower its redox potential so as to be able to grow therein both the aerobic bacterial microflora and the anaerobic bacterial microflora. The whole will subsequently be referred to as “artificial saliva”.
(§9) The artificial saliva is dispensed into test tubes at a rate of 20 ml per tube. Each tube is supplemented or not supplemented with the protein, in the presence or absence of the phosphate to be tested. Each treatment is composed of two tubes.
(§10) The whole is autoclaved at 110° C. for 15 minutes.
(§11) Each tube is subsequently inoculated with 0.2 ml of inoculum described above. The whole is incubated in an incubator at 37° C., with shaking.
(§12) After 24, 48 or 72 hours of incubation, the aerobic flora and the anaerobic flora are counted according to the methods described above.
(§13) The result of each treatment is the mean of the counts of two test tubes, expressed as log10 of C.F.U. (Colony Forming Units) per ml of artificial saliva.

[2] = tested on: anaerobic microflora; assay: Growth of cat oral bacterial microflora in artificial saliva with protein, with or without phosphate: anaerobic count; format: cell-based
Description: as §1, §2, §3, §4, §5
(§14) The anaerobic microflora is cultured and then counted on a Schaedler medium (Biokar) supplemented with 5% of sterile defibrinated sheep blood, incubated at 37° C., in a jar under CO2, for 48 hours.
as §7, §8, §9, §10, §11, §12, §13

[3] = tested on: aerobic microflora; assay: Growth of canine oral flora in artificial saliva with soya hydrolysate, with or without tripolyphosphate: aerobic count; format: cell-based, dog; details: for Aerobic microflora CFU/ml, 24 hours / Aerobic microflora CFU/ml, 48 hours: Experiment 6, canine flora
Description: as §1, §5, §6, §7, §8, §9, §10, §11, §12, §13
(§15) In this assay, the inhibitory effect of sodium tripolyphosphate incorporated at 0, 0.5, 1, 1.5 and 2%, on the prebiotic effect of a dehydrated soya hydrolysate (Nurish 1500 IP, ND from Solea Company, having a titer of 83% of total nitrogenous matter) incorporated into the artificial saliva at 0.5 and at 1%, was tested.
(§16) In this assay, oral microflora taken from a dog were used.

[4] = tested on: anaerobic microflora; assay: Growth of canine oral flora in artificial saliva with soya hydrolysate, with or without tripolyphosphate: anaerobic count; format: cell-based, dog; details: for Anaerobic microflora CFU/ml, 24 hours / Anaerobic microflora CFU/ml, 48 hours: Experiment 6, canine flora
Description: as §1, §5, §14, §7, §8, §9, §10, §11, §12, §13, §15, §16

[5] = Experiment 2, MP9007 1%, trisodium pyrophosphate 5%
[6] = Experiment 2, MP9007 1%, trisodium pyrophosphate 10%
[7] = Experiment 2, trisodium phosphate at 5%, MP9007 1%, from 24 hours of incubation
[8] = Experiment 2, trisodium phosphate incorporated at 10%, MP9007 1%
[9] = Experiment 3, MP9007 1%, trisodium pyrophosphate 0.5%
[10] = Experiment 4, MP9007 1%, tripolyphosphate 0.5%
[11] = Experiment 4, MP9007 1%, tripolyphosphate 1%
[12] = Experiment 4, MP9007 1%, tripolyphosphate 1.5%
[13] = Experiment 4, MP9007 1%, tripolyphosphate 2%
[14] = Experiment 4, sodium tripolyphosphate 0.5-2%, MP9007 1%
[15] = Experiment 5, regardless of the amount incorporated (0.5-2%), soya hydrolysate 1%
[16] = Experiment 5, soya hydrolysate 1%, tripolyphosphate 0.5%
[17] = Experiment 5, soya hydrolysate 1%, tripolyphosphate 1%
[18] = Experiment 5, soya hydrolysate 1%, tripolyphosphate 1.5%
[19] = Experiment 5, soya hydrolysate 1%, tripolyphosphate 2%
[20] = tripolyphosphate 0.5%, soya hydrolysate 0.5%
[21] = tripolyphosphate 0.5%, soya hydrolysate 1%
[22] = tripolyphosphate 1%, soya hydrolysate 0.5%
[23] = tripolyphosphate 1%, soya hydrolysate 1%
[24] = tripolyphosphate 1.5%, soya hydrolysate 0.5%
[25] = tripolyphosphate 1.5%, soya hydrolysate 1%
[26] = tripolyphosphate 2%, soya hydrolysate 0.5%
[27] = tripolyphosphate 2%, soya hydrolysate 1%
[28] = Experiment 6, soya hydrolysate 0.5 and 1%
[29] = Experiment 6, tripolyphosphate incorporation rates greater than or equal to 1%

SMILES: O=P([O-])([O-])OP(=O)([O-])O.[Na+].[Na+].[Na+] [Trisodium pyrophosphate, trisodium pyrophosphate]
- Aerobic microflora CFU/ml, 24 hours [1, 5]: 6.88 log10 CFU/ml
- Aerobic microflora CFU/ml, 48 hours [1, 5]: 7.56 log10 CFU/ml
- Aerobic microflora CFU/ml, 72 hours [1, 5]: 7.69 log10 CFU/ml
- Aerobic microflora CFU/ml, 24 hours [1, 6]: <4.00 log10 CFU/ml
- Aerobic microflora CFU/ml, 48 hours [1, 6]: 4.88 log10 CFU/ml
- Aerobic microflora CFU/ml, 72 hours [1, 6]: <4.00 log10 CFU/ml
- Inhibitory effect on the prebiotic effect of MP9007, aerobic microflora (in words) [1, 7]: very substantial
- Inhibition of the prebiotic effect of the MP9007 protein, aerobic microflora (in words) [1, 8]: completely inhibited
- Aerobic microflora CFU/ml, 24 hours [1, 9]: 7.75 log10 CFU/ml
- Anaerobic microflora CFU/ml, 24 hours [2, 5]: 6.88 log10 CFU/ml
- Anaerobic microflora CFU/ml, 48 hours [2, 5]: 7.46 log10 CFU/ml
- Anaerobic microflora CFU/ml, 72 hours [2, 5]: 6.26 log10 CFU/ml
- Anaerobic microflora CFU/ml, 24 hours [2, 6]: <4.00 log10 CFU/ml
- Anaerobic microflora CFU/ml, 48 hours [2, 6]: <4.00 log10 CFU/ml
- Anaerobic microflora CFU/ml, 72 hours [2, 6]: <4.00 log10 CFU/ml
- Inhibitory effect on the prebiotic effect of MP9007, anaerobic microflora (in words) [2, 7]: very substantial
- Inhibition of the prebiotic effect of the MP9007 protein, anaerobic microflora (in words) [2, 8]: completely inhibited
- Anaerobic microflora CFU/ml, 24 hours [2, 9]: 7.75 log10 CFU/ml

SMILES: O=P(O)(O)OP(=O)(O)OP(=O)(O)O [sodium tripolyphosphate]
- Aerobic microflora CFU/ml, 24 hours [1, 10]: 5.50 log10 CFU/ml
- Aerobic microflora CFU/ml, 48 hours [1, 10]: 6.90 log10 CFU/ml
- Aerobic microflora CFU/ml, 24 hours [1, 11]: 4.81 log10 CFU/ml
- Aerobic microflora CFU/ml, 48 hours [1, 11]: 6.49 log10 CFU/ml
- Aerobic microflora CFU/ml, 24 hours [1, 12]: 4.84 log10 CFU/ml
- Aerobic microflora CFU/ml, 48 hours [1, 12]: 6.83 log10 CFU/ml
- Aerobic microflora CFU/ml, 24 hours [1, 13]: <4.00 log10 CFU/ml
- Aerobic microflora CFU/ml, 48 hours [1, 13]: <4.00 log10 CFU/ml
- Inhibition of the prebiotic effect of the MP9007 protein, aerobic microflora (in words) [1, 14]: significantly inhibits
- Inhibition of the prebiotic effect of soya hydrolysate, aerobic microflora (in words) [1, 15]: virtually inhibits the entire prebiotic effect
- Aerobic microflora CFU/ml, 24 hours [1, 16]: <4.00 log10 CFU/ml
- Aerobic microflora CFU/ml, 48 hours [1, 16]: <4.00 log10 CFU/ml
- Aerobic microflora CFU/ml, 24 hours [1, 17]: <4.00 log10 CFU/ml
- Aerobic microflora CFU/ml, 48 hours [1, 17]: <4.00 log10 CFU/ml
- Aerobic microflora CFU/ml, 24 hours [1, 18]: <4.00 log10 CFU/ml
- Aerobic microflora CFU/ml, 48 hours [1, 18]: <4.00 log10 CFU/ml
- Aerobic microflora CFU/ml, 24 hours [1, 19]: <4.00 log10 CFU/ml
- Aerobic microflora CFU/ml, 48 hours [1, 19]: <4.00 log10 CFU/ml
- Anaerobic microflora CFU/ml, 24 hours [2, 10]: 5.41 log10 CFU/ml
- Anaerobic microflora CFU/ml, 48 hours [2, 10]: 7.04 log10 CFU/ml
- Anaerobic microflora CFU/ml, 24 hours [2, 11]: <4.00 log10 CFU/ml
- Anaerobic microflora CFU/ml, 48 hours [2, 11]: 6.36 log10 CFU/ml
- Anaerobic microflora CFU/ml, 24 hours [2, 12]: 4.98 log10 CFU/ml
- Anaerobic microflora CFU/ml, 48 hours [2, 12]: 6.82 log10 CFU/ml
- Anaerobic microflora CFU/ml, 24 hours [2, 13]: <4.00 log10 CFU/ml
- Anaerobic microflora CFU/ml, 48 hours [2, 13]: <4.00 log10 CFU/ml
- Inhibition of the prebiotic effect of the MP9007 protein, anaerobic microflora (in words) [2, 14]: significantly inhibits
- Inhibition of the prebiotic effect of soya hydrolysate, anaerobic microflora (in words) [2, 15]: virtually inhibits the entire prebiotic effect
- Anaerobic microflora CFU/ml, 24 hours [2, 16]: <4.00 log10 CFU/ml
- Anaerobic microflora CFU/ml, 48 hours [2, 16]: <4.00 log10 CFU/ml
- Anaerobic microflora CFU/ml, 24 hours [2, 17]: <4.00 log10 CFU/ml
- Anaerobic microflora CFU/ml, 48 hours [2, 17]: <4.00 log10 CFU/ml
- Anaerobic microflora CFU/ml, 24 hours [2, 18]: <4.00 log10 CFU/ml
- Anaerobic microflora CFU/ml, 48 hours [2, 18]: <4.00 log10 CFU/ml
- Anaerobic microflora CFU/ml, 24 hours [2, 19]: <4.00 log10 CFU/ml
- Anaerobic microflora CFU/ml, 48 hours [2, 19]: <4.00 log10 CFU/ml
- Aerobic microflora CFU/ml, 24 hours [3, 20]: 7.10 log10 CFU/ml
- Aerobic microflora CFU/ml, 48 hours [3, 20]: 7.54 log10 CFU/ml
- Aerobic microflora CFU/ml, 24 hours [3, 21]: 7.50 log10 CFU/ml
- Aerobic microflora CFU/ml, 48 hours [3, 21]: 7.51 log10 CFU/ml
- Aerobic microflora CFU/ml, 24 hours [3, 22]: <3 log10 CFU/ml
- Aerobic microflora CFU/ml, 48 hours [3, 22]: <3 log10 CFU/ml
- Aerobic microflora CFU/ml, 24 hours [3, 23]: <3 log10 CFU/ml
- Aerobic microflora CFU/ml, 48 hours [3, 23]: 3.17 log10 CFU/ml
- Aerobic microflora CFU/ml, 24 hours [3, 24]: <3 log10 CFU/ml
- Aerobic microflora CFU/ml, 48 hours [3, 24]: <3 log10 CFU/ml
- Aerobic microflora CFU/ml, 24 hours [3, 25]: <3 log10 CFU/ml
- Aerobic microflora CFU/ml, 48 hours [3, 25]: <3 log10 CFU/ml
- Aerobic microflora CFU/ml, 24 hours [3, 26]: <3 log10 CFU/ml
- Aerobic microflora CFU/ml, 48 hours [3, 26]: <3 log10 CFU/ml
- Aerobic microflora CFU/ml, 24 hours [3, 27]: <3 log10 CFU/ml
- Aerobic microflora CFU/ml, 48 hours [3, 27]: <3 log10 CFU/ml
- Inhibition of the prebiotic effect of soya hydrolysate, canine aerobic oral microflora (in words) [3, 28]: inhibits the prebiotic effect
- Inhibitory effect, canine aerobic oral microflora (in words) [3, 29]: particularly substantial
- Anaerobic microflora CFU/ml, 24 hours [4, 20]: 1.92 log10 CFU/ml
- Anaerobic microflora CFU/ml, 48 hours [4, 20]: 5.80 log10 CFU/ml
- Anaerobic microflora CFU/ml, 24 hours [4, 21]: 6.30 log10 CFU/ml
- Anaerobic microflora CFU/ml, 48 hours [4, 21]: 6.24 log10 CFU/ml
- Anaerobic microflora CFU/ml, 24 hours [4, 22]: <3 log10 CFU/ml
- Anaerobic microflora CFU/ml, 48 hours [4, 22]: <3 log10 CFU/ml
- Anaerobic microflora CFU/ml, 24 hours [4, 23]: <3 log10 CFU/ml
- Anaerobic microflora CFU/ml, 48 hours [4, 23]: 3.30 log10 CFU/ml
- Anaerobic microflora CFU/ml, 24 hours [4, 24]: <3 log10 CFU/ml
- Anaerobic microflora CFU/ml, 48 hours [4, 24]: <3 log10 CFU/ml
- Anaerobic microflora CFU/ml, 24 hours [4, 25]: <3 log10 CFU/ml
- Anaerobic microflora CFU/ml, 48 hours [4, 25]: <3 log10 CFU/ml
- Anaerobic microflora CFU/ml, 24 hours [4, 26]: <3 log10 CFU/ml
- Anaerobic microflora CFU/ml, 48 hours [4, 26]: <3 log10 CFU/ml
- Anaerobic microflora CFU/ml, 24 hours [4, 27]: <3 log10 CFU/ml
- Anaerobic microflora CFU/ml, 48 hours [4, 27]: <3 log10 CFU/ml
- Inhibition of the prebiotic effect of soya hydrolysate, canine anaerobic oral microflora (in words) [4, 28]: inhibits the prebiotic effect
- Inhibitory effect, canine anaerobic oral microflora (in words) [4, 29]: particularly substantial
